Measurements from US20030212015A1, “Specific modulation of Th1/Th2 cytokine expression by ribavirin in activated T-lymphocytes” (priority 1996, published 2003).

What was measured:
Type in all cases: cell-based, human
IL-4 = test: Extracellular IL-4 levels in PMA/ionomycin-activated T cells (ELISA)
Experimental: (§1) Peripheral blood mononuclear cells (PBMCs) were isolated from the buffy coat following Ficoll-Hypaque density gradient centrifugation of 60 ml blood from healthy donors. T-cells were then purified from the PBMCs using Lymphokwik lymphocyte isolation reagent specific for T-cells (LK-25T, One Lambda, Canoga Park Calif.). An average yield of 40-60×10^6 T-cells were then incubated overnight at 37° C. in 20-30 ml RPMI-AP5 (RPMI-1640 medium (ICN, Costa Mesa, Calif.) containing 20 mM HEPES buffer, pH 7.4, 5% autologous plasma, 1% L-glutamine, 1% penicillin/streptomycin and 0.05% 2-mercaptoethanol) to remove any contaminating adherent cells. In all experiments, T-cells were washed with RPMI-AP5 and then plated on 96-well microtitre plates at a cell concentration of 1×10^6 cells/ml.
(§2) T-cells were activated by the addition of 500 ng ionomycin and 10 ng phorbol 12-myristate 13-acetate (PMA) (Calbiochem, La Jolla, Calif.) and incubated for 48-72 h at 37° C. […]
(§3) Cell-derived human cytokine concentrations were determined in cell supernatants from each microplate. Activation-induced changes in interleukin-2 (IL-2) levels were determined using a commercially available ELISA kit (R & D systems Quantikine kit, Minneapolis, Minn.) or by bioassay using the IL-2-dependent cell line, CTLL-2 (ATCC, Rockville, Md.). […]

IL-2 (CD25) receptor = test: Cell surface IL-2 receptor expression in activated T cells (FACS); details: compared to control activated T cells, FIG. 4
Experimental: (§4) T-cells were activated by the addition of 500 ng ionomycin and 10 ng phorbol 12-myristate 13-acetate (PMA) (Calbiochem, La Jolla, Calif.) and incubated for 48-72 h at 37° C. PMA/ionomycin-activated T-cells were treated with 0.5-50 μM Ribavirin or with 250-10000 U/ml of a control antiviral, interferon-alpha (Accurate, Westbury, N.Y.) immediately following activation and re-treated 24 h later. T-cells from each plate were used for immunofluorescence analysis and the supernatants used for extracellular cytokine measurements. Following activation, 900 μl cell supernatant from each microplate was transferred to another microplate for analysis of cell-derived cytokine production. […]
(§5) For direct staining with fluorescence-conjugated antibodies to cell surface antigens, the cells were washed twice with isotonic saline solution, pH 7.4 (Becton Dickinson, Mansfield, Mass.) and resuspended in 50 μl isotonic saline solution and split into two samples. One sample aliquot was co-stained with either PE-anti CD25/FITC-anti CD4 or PE-rat anti mouse IgG+anti-CDw124/FITC-anti CD4 mAb and non-specific fluorescence was assessed by staining the second aliquot with PE/FITC-labeled isotype-matched control monoclonal antibody. All fluorescence-labeled monoclonal antibodies were obtained from Becton Dickinson (San Jose, Calif.) except for anti-CDw124 which was obtained from Pharmingen, San Diego, Calif. […]

IL-2 mRNA = IL-2 mRNA in PMA/ionomycin-activated T cells (RT-PCR); details: FIG. 3
Experimental: as §4, with “production. The cells are then used in immunofluorescence analyses for intracellular cytokine levels and cytokine receptor expression.” for “production.”
(§6) The PCR reaction was performed using GeneAmp PCR kit (Perkin-Elmer Cetus, Foster City, Calif.). […] PCR products were analyzed on 2% agarose gel containing ethidium bromide. […] Equivalent loading was assessed following hybridization with a probe generated from pHE7 sense primer. Washed blots were then analyzed using Phosphorlmager.

IL-2 = test: Extracellular IL-2 levels in PMA/ionomycin-activated T cells (ELISA or CTLL-2 bioassay)
Experimental: as §1, §2, §3

IL-4 mRNA = IL-4 mRNA in PMA/ionomycin-activated T cells (RT-PCR); details: FIG. 3
Experimental: as §4, with “production. The cells are then used in immunofluorescence analyses for intracellular cytokine levels and cytokine receptor expression.” for “production.”
as §6

IL-2 in CD8+ T cells = test: Intracellular IL-2 expression in activated CD8+ T cells (two-color flow cytometry); details: PMA/ionomycin alone 81%, one experiment, FIG. 5
Experimental: (§7) T-cells were activated by the addition of 500 ng ionomycin and 10 ng phorbol 12-myristate 13-acetate (PMA) (Calbiochem, La Jolla, Calif.) and incubated for 48-72 h at 37° C. PMA/ionomycin-activated T-cells were treated with 0.5-50 μM Ribavirin or with 250-10000 U/ml of a control antiviral, interferon-alpha (Accurate, Westbury, N.Y.) immediately following activation and re-treated 24 h later. T-cells from each plate were used for immunofluorescence analysis and the supernatants used for extracellular cytokine measurements. Following activation, 900 μl cell supernatant from each microplate was transferred to another microplate for analysis of cell-derived cytokine production. The cells are then used in immunofluorescence analyses for intracellular cytokine levels and cytokine receptor expression.
(§8) For analyses of the intracellular expression of IL-2 in CD4^+ and CD8^+ T cell subsets, T cells were first treated for the last 4 h of 48-72 h activation with 10 μg Brefeldin A (Gibco BRL, Gaithersburg, Md.) to minimize secretion of newly synthesized IL-2 into the extracellular milieu. […]
(§9) We examined whether the effect of Ribavirin on IL-2 expression was specific to CD4^+ or CD8^+ T cells. Intracellular IL-2 expression in fixed and Permeabilized activated T cells was determined by two-color flow cytometry using fluorescence-labeled antibodies to CD4 or CD8 and to IL-2. […]

IFNγ mRNA = IFNγ mRNA in PMA/ionomycin-activated T cells (RT-PCR); details: FIG. 3
Experimental: as §7, with “expression. […]” for “expression.”
as §6

TNFα = test: Extracellular TNFα levels in PMA/ionomycin-activated T cells (ELISA)
Experimental: as §1, §2, §3

IL-4 (CDw124) receptor = test: Cell surface IL-4 receptor expression in activated T cells (FACS); details: compared to control activated T cells, FIG. 4
Experimental: as §4, §5

IL-2 in CD4+ T cells = test: Intracellular IL-2 expression in activated CD4+ T cells (two-color flow cytometry); details: PMA/ionomycin alone 82%, one experiment, FIG. 5
Experimental: as §7, §8, §9

[1] = 2, 5 and 10 μM following T cell activation
[2] = range 250-10000 U/ml, dose-dependent, compared to untreated activated T cells

Molecule	inhibition at 2 µM (IL-4; Homo sapiens, T-cell, at 2 μM, read-out: peak inhibition of activated levels of IL-4)	effect on activated levels of IL-2 receptor (IL-2 (CD25) receptor; 1-50 μM)	effect on IL-2 mRNA (IL-2 mRNA; [1])	maximal augmentation of activated levels of IL-2 (IL-2; at 5 μM (dose range 0.5-50 μM), PMA/ionomycin-activated T cells, 48-72 h, representative experiment, FIG. 1)	effect on IL-4 mRNA (IL-4 mRNA; [1])	percentage of CD8+ expressing IL-2 (IL-2 in CD8+ T cells; 10 μM)	effect on IFNγ mRNA (IFNγ mRNA; [1])	maximal augmentation of activated levels of TNFα (TNFα; at 20 μM (dose range 0.5-50 μM), PMA/ionomycin-activated T cells, 48-72 h, representative experiment, FIG. 1)	effect on activated levels of IL-4 receptor (IL-4 (CDw124) receptor; 1-50 μM)	percentage of CD4+ T cells expressing IL-2 (IL-2 in CD4+ T cells; 10 μM)	maximal increase of extracellular IL-4 (IL-4; 10000 U/ml)	effect on IL-2 receptor expression (IL-2 (CD25) receptor; 250-10000 U/ml, dose-dependent)	effect on IL-2 mRNA (IL-2 mRNA; 1000, 2000 and 5000 U/ml)	maximal inhibition of IL-2 expression (IL-2; [2])	effect on IL-4 mRNA (IL-4 mRNA; 1000, 2000 and 5000 U/ml)	percentage of IL-2-expressing CD8+ cells (IL-2 in CD8+ T cells; 5000 U/ml)	effect on IFNγ mRNA (IFNγ mRNA; 1000, 2000 and 5000 U/ml)	maximal inhibition of TNFα expression (TNFα; [2])	effect on IL-4 receptor expression (IL-4 (CDw124) receptor; 250-10000 U/ml, dose-dependent)	percentage of IL-2-expressing CD4+ cells (IL-2 in CD4+ T cells; 5000 U/ml)
NC(=O)c1ncn([C@@H]2O[C@H](CO)[C@@H](O)[C@H]2O)n1 [Ribavirin, 1-β-D-ribofuranosyl-1,2,4-triazole-3-carboxamide]	74%	little effect	elevates	30%	decreases	91%	has no effect	36%	little effect	91%	–	–	–	–	–	–	–	–	–	–
interferon-α	–	–	–	–	–	–	–	–	–	–	26%	decreased	decreases	33%	increases	71%	decreases	38%	increased	81%
